Measured values: the CheMixHub ionic liquid set
“And” between values parts separate entries of the source, which are not always exact repeats. Equal entries are not always repeated.

Assay: xn = mol fraction of the nth substance listed

OCC(F)(F)F + COP(=O)([O-])OC.Cn1cc[n+](C)c1
viscosity [mPa·s], 101 kPa
Settings	298.15 K	333.15 K
x2 = 0.4904	42.9	–
x2 = 0.803	158.2	31.5

CCCn1cc[n+](C)c1.[Br-] + O
Settings	electrical conductivity	viscosity [mPa·s]
298 K, 101 kPa, x2 = 0.22	0.14 S/m and 0.17 S/m	–
298 K, 101 kPa, x2 = 0.88	9.16 S/m	–
298 K, 101 kPa, x2 = 0.93	9.89 S/m	–
298 K, 101 kPa, x2 = 0.98	6.44 S/m	–
303.15 K, 100 kPa, x1 = 0.4005	–	29.2
323.15 K, 100 kPa, x1 = 0.0497	–	1.09

C[N+]1(CCOCCOCCOCC[N+]2(C)CCCC2)CCCC1.N#C[N-]C#N.N#C[N-]C#N + CC[n+]1ccn(C)c1.N#C[N-]C#N + O=S(=O)([N-]S(=O)(=O)C(F)(F)F)C(F)(F)F.[Li+]
100 kPa, x1 = 0.252, x2 = 0.6578
Settings	electrical conductivity [S/m]
298 K	0.522
303 K	0.63
313 K	0.854
323 K	1.16
333 K	1.48
343 K	1.86

CCCO + CS(=O)(=O)[O-].C[N+](C)(CCO)CCO
101 kPa, x2 = 0
Settings	viscosity [mPa·s]
298.15 K	1.95
303.15 K	1.73
308.15 K	1.545
313.15 K	1.383
318.15 K	1.247
323.15 K	1.136

CCCCCCCCCCCC[P+](CC)(CC)CC.N#Cc1ccc[n-]1 + OCCN(CCO)CCO
100 kPa
Settings	electrical conductivity [S/m]	viscosity [mPa·s]
293.15 K, x1 = 0.01	0.0023	–
293.15 K, x1 = 0.035	0.0045	990
293.15 K, x1 = 0.207	–	880
293.15 K, x1 = 0.473	–	850
293.15 K, x1 = 0.583	0.0111	–
298.15 K, x1 = 0.051	–	652
298.15 K, x1 = 0.207	–	585
298.15 K, x1 = 0.809	–	506
313.15 K, x1 = 0.051	–	189
313.15 K, x1 = 0.207	–	186

CCOS(=O)(=O)[O-].CC[N+]1(C)CCCC1 + O
101 kPa
Settings	viscosity [mPa·s]
313.15 K, x2 = 0	78
313.15 K, x2 = 0.105	65
318.15 K, x2 = 0	65
318.15 K, x2 = 0.7542	8.9
323.15 K, x2 = 0.7542	7.7
333.15 K, x2 = 0.9652	0.99
338.15 K, x2 = 0.6505	7.7
338.15 K, x2 = 0.9652	0.98
343.15 K, x2 = 0.6505	6.6
343.15 K, x2 = 0.9652	0.98

CCCC[N+](C)(CCCC)CCCC.[Cl-] + OC[C@H]1O[C@@H](O[C@H]2[C@H](O)[C@@H](O)[C@@H](O)O[C@@H]2CO)[C@H](O)[C@@H](O)[C@H]1O + O
viscosity [mPa·s], 100 kPa
Settings	293.15 K	298.15 K	303.15 K	308.15 K	313.15 K
x2 = 0, x1 = 0.0003603	1.01	0.904	0.809	0.726	0.661
x2 = 0, x1 = 0.0007023	1.024	0.914	0.815	0.735	0.671
x2 = 0, x1 = 0.001062	1.035	0.93	0.829	0.744	0.686
x2 = 0, x1 = 0.001422	1.045	0.941	0.839	0.756	0.694

CCCC[N+](CCCC)(CCCC)CCCC.N#C[S-] + CCCOCC(C)O
electrical conductivity [S/m], 101 kPa
Settings	248.15 K	258.15 K	268.15 K	278.15 K	288.15 K	298.15 K	308.15 K	313.15 K
x1 = 0.01119	0.0011	0.00185	0.00285	0.00405	0.00541	–	0.00829	0.00901
x1 = 0.01571	0.00157	0.00271	0.00425	0.00618	0.00842	0.01082	0.01352	0.01485
x1 = 0.01893	0.0019	0.00331	0.00526	0.00773	0.01064	0.01386	0.01748	0.01934
x1 = 0.02277	0.00227	0.00401	0.00644	0.00956	0.01332	0.01758	0.02234	0.02493
x1 = 0.02903	0.00284	0.00511	0.00834	0.01257	0.01775	0.02385	0.03061	0.03428
x1 = 0.03808	0.00356	0.00652	0.01082	0.01658	0.02379	0.03253	0.04237	0.04779
x1 = 0.04326	0.0039	0.00723	0.01211	0.01864	0.02705	0.0372	0.04875	0.0548
x1 = 0.06196	0.00476	0.00908	0.01564	0.02482	0.03669	0.05153	0.06887	0.07879
x1 = 0.07662	0.00504	0.00979	0.01722	0.02776	0.04173	0.05942	0.0805	0.09266
x1 = 0.09291	0.005	0.00994	0.01782	0.02925	0.04479	0.06473	0.08902	0.1031
x1 = 0.1099	0.00469	0.00956	0.01751	0.02928	0.04564	0.06699	0.09343	0.109
x1 = 0.1312	0.00408	0.00857	0.01611	0.02768	0.04408	0.06606	0.09376	0.1103
x1 = 0.1458	0.0036	0.00773	0.01481	0.02593	0.0419	0.06371	0.09151	0.1083

CCCC[n+]1ccn(C)c1.N#C[S-] + CN1CCCC1=O
viscosity [mPa·s], 101 kPa
Settings	x1 = 0.0009705	x1 = 0.001495	x1 = 0.002117	x1 = 0.002433	x1 = 0.003004	x1 = 0.003507	x1 = 0.004097	x1 = 0.00451
288.15 K	2.139	2.145	2.153	2.158	2.163	2.166	2.172	2.178
298.15 K	1.804	1.808	1.811	1.813	1.821	1.827	1.834	1.843
308.15 K	1.563	1.575	1.582	1.586	1.593	1.604	1.616	1.623
318.15 K	1.295	1.305	1.311	1.317	1.322	1.327	1.337	1.349

CCCC[P+](CCCC)(CCCC)CCCC.CS(=O)(=O)[O-] + c1c[nH]cn1
101.33 kPa, x1 = 0.5
Settings	viscosity [mPa·s]
313.05 K	100
353.05 K	21.6

CCCC[n+]1ccn(C)c1.N#C[S-] + c1ccccc1
viscosity [mPa·s], 100 kPa
Settings	x2 = 0	x2 = 0.2334	x2 = 0.258	x2 = 0.3919	x2 = 0.5094
298.15 K	62.8	33	30.7	20.1	12.51
308.15 K	40.6	22.5	21.1	14.29	9.27
318.15 K	27.8	16.2	15.23	10.64	7.16
328.15 K	20.1	12.19	11.52	8.25	5.65
